Earlier results as cited in patent publication US20070148205A1, “Prevention of Arterial Restenosis with Active Vitamin D Compounds” (priority 2004, published 2007).

Conditions: in vivo

SMILES: C=C1/C(=C\C=C2/CCC[C@]3(C)C([C@H](C)CC#CC(C)(C)O)=CC[C@@H]23)C[C@@H](O)C[C@@H]1O [Ro23-7553]
- Hypercalcemic effect compared to calcitriol, in words: reduced hypercalcemic effect
